Measurements as given in US11066369B2, “N-(pyridin-2-yl)pyridine-sulfonamide derivatives and their use in the treatment of disease” (Novartis AG, priority 2016, dated 2021).
Structures can show the parent of a compound that is named as a salt. Where two headings read alike, the source gives them in different places.

Biological target: T1, horseradish peroxidase (HRP) tagged delF508-CFTR (Homo sapiens, UniProt P13569, DEL508-508)
T1 construct: expressed in transfected cells
Assay: Measurement of delF508-CFTR-HRP surface expression in CFBE41o- cells;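 for DelF508-CFTR-HRP Amax %: percent efficacy relative to reference corrector lumacaftor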
Format: cell-based
Conditions: CFBE41o- cells; for Emax: read-out: DelF508-CFTR-HRP Amax %; for EC50: read-out: DelF508-CFTR-HRP EC50
From the text: Measurement of delF508-CFTR-HRP Surface Expression in CFBE41o-Cells
This assay quantifies the cell surface expressions of the mutant CFTR channel using an extracellular HRP tag.
A cellular assay was developed to measure surface expression of horseradish peroxidase (HRP) tagged delF508-CFTR in the human bronchial epithelial immortalized CFBE41o-cell line (Phuan, P. W., et al, (2014) Molecular Pharmacology 86:42-51). Specifically, the HRP sequence was inserted into the fourth extracellular loop of delF508-CFTR and stably expressed in CFBE41o-cells. Cells were seeded in 384 well plate at a density of 5000 cells/well and incubated at 37° C. for 12 to 24 hours in medium (Gibco MEM #11095, 10% FBS, 10 mM HEPES, […], 200 μg/mL G418, 3 μg/mL Puromycin). The delF508-CFTR-HRP expression was induced with 500 ng/mL doxycycline (Sigma D-9891, dissolved in H2O and sterile filtered) in medium and the cells were incubated at 37° C. for 48h. Old medium was removed and fresh medium was added containing 500 ng/mL doxycycline and unknown test compound at required test concentration in DMSO, not exceeding 0.5% final DMSO concentration. The highest concentration tested was 10 μM with a 10-point concentration response curve using a 3-fold dilution. After addition of compounds, the cells were incubated for 24h at 37° C. On the final day, cells were washed four times in PBS containing 1 mM MgCl2 and 0.1 mM CaCl2. HRP-Substrate (SuperSignal ELISA Pico, Fisher #37069) 20 μl/well was added and the luminescence signal was determined (Viewlux, Perkin Elmer). Light was emitted upon addition of exogenous HRP-Substrate only when delF508-CFTR-HRP reached the cell surface and the HRP tag was accessible to the HRP-Substrate (note: HRP-Substrate cannot cross the lipid bilayer to reach delF508-CFTR-HRP misfolded within the cell).
The median activity for the lowest concentration of the compounds on each assay plate was calculated and this value was used to normalize the signal for each well on the respective plate. Three replicates at each concentrations for every compound were run to determine one EC50. The median value was determined and used to calculate compound activities as described below. Effective half maximal values (EC50) were calculated for each compound by performing logistic regression on measured dose-response data points using the equation:
[formula] where “Y” is the observed activity, “Bottom” is the lowest observed value, “Top” is the highest observed value, and the “Hill coefficient” gives the largest absolute value of the slope. The curve fitting is carried out by a curve fitting program implemented at GNF using Matlab (Mathworks).
The dose response curves also were used to calculate Fold Change (FC) using the equation: […]
Compound efficacy relative to the reference compound 3-(6-(1-(2,2-difluorobenzo[d][1,3]dioxol-5-yl)cyclopropane-1-carboxamido)-3-methylpyridin-2-yl)benzoic acid was determined using the following formula: […]

[1] = delF508-CFTR-HRP surface expression
[2] = mean of at least two replicates

T1 sequence (P13569 with tags, fused parts or gaps DEL508-508): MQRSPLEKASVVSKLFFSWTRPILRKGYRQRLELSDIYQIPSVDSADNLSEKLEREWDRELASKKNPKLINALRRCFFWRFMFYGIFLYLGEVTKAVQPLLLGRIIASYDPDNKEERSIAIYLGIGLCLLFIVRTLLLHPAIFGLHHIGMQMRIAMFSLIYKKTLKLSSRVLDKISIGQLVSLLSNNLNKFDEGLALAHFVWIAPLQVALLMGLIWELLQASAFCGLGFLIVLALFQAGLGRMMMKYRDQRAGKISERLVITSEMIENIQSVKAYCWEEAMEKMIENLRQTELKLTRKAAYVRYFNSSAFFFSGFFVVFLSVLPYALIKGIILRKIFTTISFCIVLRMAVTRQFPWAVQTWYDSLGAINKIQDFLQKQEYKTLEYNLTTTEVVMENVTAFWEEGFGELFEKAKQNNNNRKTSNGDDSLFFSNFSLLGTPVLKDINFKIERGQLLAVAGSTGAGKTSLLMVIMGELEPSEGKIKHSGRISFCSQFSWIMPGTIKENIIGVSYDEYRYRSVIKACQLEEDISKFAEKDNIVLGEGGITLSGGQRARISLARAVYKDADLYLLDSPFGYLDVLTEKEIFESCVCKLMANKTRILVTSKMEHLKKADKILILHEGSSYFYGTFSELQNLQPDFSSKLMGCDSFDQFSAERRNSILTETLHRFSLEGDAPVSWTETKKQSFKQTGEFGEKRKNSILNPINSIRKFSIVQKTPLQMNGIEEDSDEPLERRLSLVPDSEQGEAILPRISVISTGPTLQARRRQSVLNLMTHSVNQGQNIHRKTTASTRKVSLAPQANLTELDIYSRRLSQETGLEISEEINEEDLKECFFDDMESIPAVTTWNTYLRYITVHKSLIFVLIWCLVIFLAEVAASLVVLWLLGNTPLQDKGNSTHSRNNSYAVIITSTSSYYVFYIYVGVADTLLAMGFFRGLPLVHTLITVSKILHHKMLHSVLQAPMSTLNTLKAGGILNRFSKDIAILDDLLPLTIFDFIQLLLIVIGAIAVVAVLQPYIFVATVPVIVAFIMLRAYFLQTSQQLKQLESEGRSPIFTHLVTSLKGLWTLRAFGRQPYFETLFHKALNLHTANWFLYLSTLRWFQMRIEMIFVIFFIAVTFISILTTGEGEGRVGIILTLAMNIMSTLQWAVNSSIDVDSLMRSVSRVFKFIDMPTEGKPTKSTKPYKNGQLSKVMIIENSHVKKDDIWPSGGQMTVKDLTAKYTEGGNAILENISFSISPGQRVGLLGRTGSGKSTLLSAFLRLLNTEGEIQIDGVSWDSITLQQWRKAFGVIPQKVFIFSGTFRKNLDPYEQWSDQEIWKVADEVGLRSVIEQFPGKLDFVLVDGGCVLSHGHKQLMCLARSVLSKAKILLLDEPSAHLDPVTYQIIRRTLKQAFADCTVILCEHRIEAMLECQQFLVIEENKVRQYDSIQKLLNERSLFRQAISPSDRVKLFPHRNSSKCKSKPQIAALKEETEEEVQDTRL

Row | Emax [1] [%] | EC50 [1] [nM] | EC50 [2] [nM] | Emax (surface expression Amax) [%] | SMILES
1 |  |  | 2510 | 284 | CC1(C(=O)O)CCN(c2cccc(S(=O)(=O)Nc3ccc(C(F)(F)F)c(-c4ccccc4OCC(F)(F)F)n3)n2)CC1 [Example 381, 4-methyl-1-(6-(N-(6-(2-(2,2,2-trifluoroethoxy)phenyl)-5-(trifluoromethyl)pyridin-2-yl)sulfamoyl)pyridin-2-yl)piperidine-4-carboxylic Acid]
2 | 385 | 3420 |  |  | CC1(C(=O)O)CCN(c2cccc(S(=O)(=O)Nc3ccc(C(F)(F)F)c(-c4ccc(F)cc4Cl)n3)n2)CC1 [Example 240, 1-(6-(N-(6-(2-chloro-4-fluorophenyl)-5-(trifluoromethyl)pyridin-2-yl)sulfamoyl)pyridin-2-yl)-4-methylpiperidine-4-carboxylic Acid]
3 |  |  | 761 | 889 | CC1(C(=O)O)CCCN(c2cccc(S(=O)(=O)Nc3ccc(Cl)c(-c4ccccc4C(C)(C)C)n3)n2)C1 (stereo not drawn) [Example 390, 1-(6-(N-(6-(2-(tert-butyl)phenyl)-5-chloropyridin-2-yl)sulfamoyl)pyridin-2-yl)-3-methylpiperidine-3-carboxylic Acid]
4 |  |  | 1390 | 400 | Cc1ccccc1-c1nc(NS(=O)(=O)c2cccc(N3CCC[C@@](C)(C(=O)O)C3)n2)ccc1C1CC1 [Example 411, (R)-1-(6-(N-(5-cyclopropyl-6-(o-tolyl)pyridin-2-yl)sulfamoyl)pyridin-2-yl)-3-methylpiperidine-3-carboxylic Acid]
5 |  |  | 498 |  | C[C@@]1(C(=O)O)CCCN(c2cccc(S(=O)(=O)Nc3ccc(C(F)(F)F)c(-c4ccccc4C4CCC4)n3)n2)C1 [Example 383, (R)-1-(6-(N-(6-(2-cyclobutylphenyl)-5-(trifluoromethyl)pyridin-2-yl)sulfamoyl)pyridin-2-yl)-3-methylpiperidine-3-carboxylic Acid]
6 |  |  | 527 | 460 | CC(C)c1ccccc1-c1nc(NS(=O)(=O)c2cccc(N3CCC[C@@](C)(C(=O)O)C3)n2)ccc1Cl [Example 392, (R)-1-(6-(N-(5-chloro-6-(2-isopropylphenyl)pyridin-2-yl)sulfamoyl)pyridin-2-yl)-3-methylpiperidine-3-carboxylic Acid]
7 | 222 | 3650 |  |  | COc1ccc(Cl)c(-c2nc(NS(=O)(=O)c3cccc(N4CCC(C)(C(=O)O)CC4)n3)ccc2Cl)c1 [Example 244, 1-(6-(N-(5-chloro-6-(2-chloro-5-methoxyphenyl)pyridin-2-yl)sulfamoyl)pyridin-2-yl)-4-methylpiperidine-4-carboxylic Acid]
8 |  |  | 638 | 282 | CC(C)Oc1ccc(Cl)cc1-c1nc(NS(=O)(=O)c2cccc(N3CCC(C)(C(=O)O)CC3)n2)ccc1C(F)(F)F [Example 427, 1-(6-(N-(6-(5-chloro-2-isopropoxyphenyl)-5-(trifluoromethyl)pyridin-2-yl)sulfamoyl)pyridin-2-yl)-4-methylpiperidine-4-carboxylic Acid]
9 |  |  | 1770 | 899 | COc1ccc(Cl)cc1-c1nc(NS(=O)(=O)c2cccc(N3CCC[C@@](C)(C(=O)O)C3)n2)ccc1C(F)(F)F [Example 455, (R)-1-(6-(N-(6-(5-chloro-2-methoxyphenyl)-5-(trifluoromethyl)pyridin-2-yl)sulfamoyl)pyridin-2-yl)-3-methylpiperidine-3-carboxylic Acid]
10 |  |  | 1920 | 210 | COc1ccc(NS(=O)(=O)c2cccc(N3CCC[C@@](C)(C(=O)O)C3)n2)nc1-c1ccccc1C [Example 410, (R)-1-(6-(N-(5-methoxy-6-(o-tolyl)pyridin-2-yl)sulfamoyl)pyridin-2-yl)-3-methylpiperidine-3-carboxylic Acid]
11 |  | 1790 |  |  | CCOc1ccccc1-c1nc(NS(=O)(=O)c2cccc(N3CCC[C@@](C)(C(=O)O)C3)n2)ccc1C(F)(F)F [Example 328, (R)-1-(6-(N-(6-(2-ethoxyphenyl)-5-(trifluoromethyl)pyridin-2-yl)sulfamoyl)pyridin-2-yl)-3-methylpiperidine-3-carboxylic Acid]
12 | 196 | 4400 |  |  | O=S(=O)(Nc1ccc(C(F)(F)F)c(-c2cccc(F)c2Cl)n1)c1cccc(N2CCNCC2)n1 [Example 155, N-(6-(2-chloro-3-fluorophenyl)-5-(trifluoromethyl)pyridin-2-yl)-6-(piperazin-1-yl)pyridine-2-sulfonamide hydrochloride]

More lines, now with the values behind:

Row | SMILES | Emax [1] [%] | EC50 [1] [nM] | EC50 [2] [nM] | Emax (surface expression Amax) [%]
13 | Cc1ccccc1-c1nc(NS(=O)(=O)c2cccc(OC3COCC3=O)n2)ccc1C(F)(F)F (racemic) [Example 292, 6-((4-oxotetrahydrofuran-3-yl)oxy)-N-(6-(o-tolyl)-5-(trifluoromethyl)pyridin-2-yl)pyridine-2-sulfonamide] | 225 | 2970 |  | 
14 | Cc1cc(C#N)ccc1-c1nc(NS(=O)(=O)c2cccc(N)n2)ccc1Cl [Example 91, 6-amino-N-(5-chloro-6-(4-cyano-2-methylphenyl)pyridin-2-yl)pyridine-2-sulfonamide] | 41.7 | 2200 |  | 
15 | Nc1cccc(S(=O)(=O)Nc2ccc(Cl)c(-c3ccccc3Cl)n2)n1 [Example 24, 6-amino-N-(5-chloro-6-(2-chlorophenyl)pyridin-2-yl)pyridine-2-sulfonamide] | 485 | 1460 |  | 
16 | Cc1cc(F)ccc1-c1nc(NS(=O)(=O)c2cccc(N)n2)ccc1Cl [Example 37, 6-amino-N-(5-chloro-6-(4-fluoro-2-methylphenyl)pyridin-2-yl)pyridine-2-sulfonamide] | 386 | 2290 |  | 
17 | Cc1ccccc1-c1nc(NS(=O)(=O)c2ccc(N)nc2)ccc1Cl [Example 40, 6-amino-N-(5-chloro-6-(o-tolyl)pyridin-2-yl)pyridine-3-sulfonamide] | 373 | 2360 |  | 
18 | CCCC1(C(=O)O)CCCN(c2cccc(S(=O)(=O)Nc3ccc(Cl)c(-c4ccccc4C)n3)n2)C1 (stereo not drawn) [Example 456, 1-(6-(N-(5-chloro-6-(o-tolyl)pyridin-2-yl)sulfamoyl)pyridin-2-yl)-3-propylpiperidine-3-carboxylic Acid] |  |  | 1360 | 465
19 | Cc1cc(C#N)ccc1-c1nc(NS(=O)(=O)c2ccnc(N)c2)ccc1Cl [Example 92, 2-amino-N-(5-chloro-6-(4-cyano-2-methylphenyl)pyridin-2-yl)pyridine-4-sulfonamide] | 23.9 | 1110 |  | 
20 | Nc1cccc(S(=O)(=O)Nc2ccc(Cl)c(-c3cc(F)ccc3C3CC3)n2)n1 [Example 21, 6-amino-N-(5-chloro-6-(2-cyclopropyl-5-fluorophenyl)pyridin-2-yl)pyridine-2-sulfonamide] | 493 | 1360 |  | 
21 | CC(C)c1ccccc1-c1nc(NS(=O)(=O)c2cccc(N3CCC[C@@H]4[C@@H](C(=O)O)C[C@@H]43)n2)ccc1C(F)(F)F (racemic) [Example 442, rac-(1SR,6RS,7SR)-2-(6-(N-(6-(2-isopropylphenyl)-5-(trifluoromethyl)pyridin-2-yl)sulfamoyl)pyridin-2-yl)-2-azabicyclo[4.2.0]octane-7-carboxylic Acid] |  |  | 1240 | 
22 | CC(C)COc1ccccc1-c1nc(NS(=O)(=O)c2cccc(N3CCC(C)(C(=O)O)CC3)n2)ccc1C(F)(F)F [Example 382, 1-(6-(N-(6-(2-isobutoxyphenyl)-5-(trifluoromethyl)pyridin-2-yl)sulfamoyl)pyridin-2-yl)-4-methylpiperidine-4-carboxylic Acid] |  |  | 711 | 504
23 | Cc1cccc(F)c1-c1nc(NS(=O)(=O)c2cccc(N)n2)ccc1Cl [Example 31, 6-amino-N-(5-chloro-6-(2-fluoro-6-methylphenyl)pyridin-2-yl)pyridine-2-sulfonamide] | 418 | 1320 |  | 
24 | Cc1cccc(C(F)(F)F)c1-c1nc(NS(=O)(=O)c2cccc(N)n2)ccc1Cl [Example 53, 6-amino-N-(5-chloro-6-(2-methyl-6-(trifluoromethyl)phenyl)pyridin-2-yl)pyridine-2-sulfonamide] | 325 | 1840 |  | 
